The source of these data is article PMC11979685, “Synthesis of Derivatives of the Antibiotic Albicidin: The N‐Terminal Fragment as Key to Control Potency and Resistance Mediated by the Binding Protein AlbA” (Chemistry (Weinheim an Der Bergstrasse, Germany), 2025).

One assay has as its target E. coli DNA gyrase (Escherichia coli, UniProt P0AES4). In words: E. coli gyrase DNA cleavage assay. Further details: key to Gyrase inhibition strong+ / weak −: + strong inhibition; − weak inhibition in comparison to compound 16. Type of assay: biochemical. Put shortly: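 Relaxed pBR322 incubated with wild-type E. coli gyrase (50 nM stock for pre-screening, 40 nM stock for IC50 runs) and compound in buffer with 1 mM ATP, 2% DMSO, 30 min at 37 °C; cleavage complexes trapped with SDS/proteinase K. Linearized DNA as percentage of total by ethidium-stained agarose gel; four-parameter fit.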

For the next assay, the system named is E. coli DSM 1116. Briefly: Qualitative growth inhibition assay in presence of AlbAS. Type of assay: cell-based, Escherichia coli. The method, then: Finally, we investigated if synthetic variations of building block A are able to evade the effects of the resistance protein AlbA. Therefore, we carried out a qualitative growth inhibition assay with derivatives 4–24 in presence of an equimolar amount of purified AlbAS. After incubation of the cultures overnight, the growth of the bacteria was evaluated. The ability of AlbAS to sufficiently sequester an albicidin derivative from the supernatant allowed E. coli cells to accumulate in a visible cell pellet. Second, we performed a quantitative transcription‐activation reporter assay[22] to assess transcriptional regulation by AlbAL. The promoter sequence pAlbA was inserted into a reporter vector that encodes the ilux luminescence cassette.[22] The luminescence signals elicited by ligand binding of synthetic variations to AlbAL was compared and normalized to the signal induced by 2nd Gen albicidin 2 and are hereby referred to as relative transcription activation (TA^%). The combination of both assays prompted us to categorize the experimental outcomes (Figure 4) in four groups:
Figure 4 Characterization of AlbA resistance against derivatives 2, 4–24. GIA: Qualitative growth inhibition assay against E. coli DSM 1116. (−): Derivative unable to inhibit the growth of E. coli in presence of AlbAS. (+): Derivative inhibits growth of E. coli in presence of AlbAS. […] For details see SI Figure 9. Transcription activation (TA) assay: luminescence elicited by 2nd Gen albicidin 2 from the TA assay was normalized to 100 % and the luminescence signal of tested derivatives provided: relative luminescence [%]=luminescence [derivative]/luminescence [2]×100 %. Green bars indicate low relative luminescence (<40 %) and red bars indicate high relative luminescence (>50 %). Error bars show the standard deviations of triplicate measurements. TEXT PRINTED IN THE PICTURE: 2: E. coli inhibition +AlbA: − | 4: E. coli inhibition +AlbA: + | 9: E. coli inhibition +AlbA: + | 11: E. coli inhibition +AlbA: + | 12: E. coli inhibition +AlbA: + | 13: E. coli inhibition +AlbA: ~ | 14: E. coli inhibition +AlbA: − | 16: E. coli inhibition +AlbA: − | 17: E. coli inhibition +AlbA: − | 18: E. coli inhibition +AlbA: − | 19: E. coli inhibition +AlbA: − | 20: E. coli inhibition +AlbA: + | 21: E. coli inhibition +AlbA: − | 22: E. coli inhibition +AlbA: − | 23: E. coli inhibition +AlbA: − | 24: E. coli inhibition +AlbA: − […]
1.3 Resistance assessment against AlbA
E. coli strain DSM 1116 was used for all susceptibility testing. E. coli BL21 Star (DE3) cells (Invitrogen) were used for protein expression. LB medium (Lysogeny broth: 10 g/L peptone, 5 g/L yeast extract, 5 g/L NaCl) was used as broth or in agar plates for all experiments. Incubation steps took place at 37°C and 180 rpm shaking if not stated otherwise. Throughout the study, 2nd Gen albicidin 2 was used as albicidin standard due to its better stability, availability and similar activity compared to natural albicidin in presence of resistance factors.[3,4]
AlbA expression and purification
N-terminally His-tagged AlbA was expressed using a pET28a vector as described previously.[5] In brief, E. coli BL21(DE3) cells were transformed with pET28-AlbA plasmid and grown in LB medium with kanamycin. LB broth supplemented with 50 µg/mL kanamycin was inoculated from over-night cultures and grown at 37°C until an OD600 of 0.6 was reached. After induction with 0.2 mM isopropyl β-D-1-thiogalactopyranoside (IPTG) the proteins were expressed at 18°C for 20 h. The cells were harvested by centrifugation (4,000 x G, 20 min), resuspended in lysis buffer (50 mM Tris, pH 8.0, 500 mM NaCl, 10% glycerol) and processed in a cell disruptor (Constant Systems Ltd) at 25 kPsi before centrifugation at 50,000 x G, at 4°C for 45 min. The lysate was incubated with Pure Cube Ni-NTA agarose (Cube Biotech, Germany) at 4°C for 20 min while shaking. The slurry was transferred to empty gravity-flow […]

E. coli DNA gyrase, sequence (P0AES4 whole entry): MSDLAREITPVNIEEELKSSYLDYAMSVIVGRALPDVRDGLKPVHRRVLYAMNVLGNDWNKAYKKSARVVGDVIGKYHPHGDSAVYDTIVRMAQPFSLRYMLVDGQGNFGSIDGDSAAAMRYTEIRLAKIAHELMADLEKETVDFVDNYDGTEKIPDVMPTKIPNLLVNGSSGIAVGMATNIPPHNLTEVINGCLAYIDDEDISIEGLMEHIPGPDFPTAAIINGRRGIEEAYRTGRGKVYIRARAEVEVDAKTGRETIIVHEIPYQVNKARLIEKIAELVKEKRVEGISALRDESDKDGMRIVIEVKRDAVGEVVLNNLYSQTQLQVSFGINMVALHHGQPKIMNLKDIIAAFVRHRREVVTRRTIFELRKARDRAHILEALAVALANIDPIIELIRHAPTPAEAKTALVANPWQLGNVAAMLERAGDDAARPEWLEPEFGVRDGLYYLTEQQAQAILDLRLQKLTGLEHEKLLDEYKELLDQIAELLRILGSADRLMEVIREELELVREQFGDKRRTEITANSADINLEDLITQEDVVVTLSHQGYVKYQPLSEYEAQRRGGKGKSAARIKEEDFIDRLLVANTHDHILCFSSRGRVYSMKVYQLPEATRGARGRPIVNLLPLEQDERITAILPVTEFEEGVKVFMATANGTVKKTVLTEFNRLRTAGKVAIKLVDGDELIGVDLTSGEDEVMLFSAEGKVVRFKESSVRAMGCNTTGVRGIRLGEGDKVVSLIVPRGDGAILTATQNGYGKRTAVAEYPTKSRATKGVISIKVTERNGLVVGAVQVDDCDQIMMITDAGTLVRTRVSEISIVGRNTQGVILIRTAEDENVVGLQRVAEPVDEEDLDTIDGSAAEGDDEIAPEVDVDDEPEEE

As to `COc1c(NC(=O)c2ccc(NC(=O)c3ccc(NC(=O)[C@H](Cc4c[nH]nn4)NC(=O)c4ccc(NC(=O)c5ccc6ccccc6n5)cc4)cn3)c(OC)c2O)ccc(C(=O)O)c1O` [compound 11], the CC50 at E. coli DNA gyrase (E. coli gyrase DNA cleavage, read-out: CC50 (concentration at half-maximum cleavage)) worked out at 18 nM. Besides, the “Gyrase inhibition strong+ / weak −” value on E. coli DNA gyrase (qualitative DNA cleavage assay at 1 μM and 10 μM, in comparison to compound 16) is “+”. The “GIA: E. coli inhibition +AlbA” value with E. coli DSM 1116 (E. coli DSM 1116, 10 µM compound with equimolar AlbAS) is recorded as “+”. Also, in the assay on E. coli DSM 1116 (E. coli, equimolar purified AlbAS), the “bioactivity in presence of AlbAS (in words)” value is “highly bioactive”.
